{"source": "patent US20170096492A1", "about": "“DOSAGE AND ADMINISTRATION OF ANTI-IGF-1R, ANTI-ErbB3 BISPECIFIC ANTIBODIES, USES THEREOF AND METHODS OF TREATMENT [sequence]” (Merrimack Pharmaceuticals, Inc., priority 2014, published 2017)", "key": {"[1]": {"tested_on": "hepatocellular carcinoma tumor biopsies", "assay": "Immunohistochemistry of pre- and post-treatment tumor biopsies (cohort 4D)", "type": "in vivo, human", "settings": "post- vs pre-treatment, MM-141 20 mg/kg weekly, sorafenib-refractory HCC", "text": "Formalin fixed, paraffin embedded biopsy samples were sectioned at 5 μm, processed and stained for IGF-1R (G11 clone detection antibody, Ventana) and ErbB3 (clone D22 antibody, Cell Signaling Technology)."}, "[2]": {"tested_on": "CFPAC-1 pancreatic cancer cells", "assay": "Total ErbB3 and total IGF-1R ELISA (Example 20)", "type": "cell-based, human", "settings": "50 nM, relative to vehicle control", "experimental": "CFPAC-1 pancreatic cancer cells were seeded at 65% confluence in 10% serum-containing medium and incubated in 96-well plates overnight. […] After treatment, cells were harvested and protein lysates generated. Changes in ErbB3 and IGF-1R levels across all treatments were evaluated by total ErbB3 or total IGF-1R ELISA, respectively."}}, "note": "Entries after “also recorded” stand apart in the source; their conditions may differ."}
{"substance": "MM-141: polyvalent bispecific antibody P4-G1-M1.3, anti-IGF-1R and anti-ErbB3; heavy chain SEQ ID NO: 3, light chain SEQ ID NO: 4", "values": [{"measurement": "ErbB3 level in tumor biopsy", "setting": "[1]", "result": "decreased; also recorded: Down-regulation"}, {"measurement": "IGF-1R level in tumor biopsy", "setting": "[1]", "result": "decreased; also recorded: Down-regulation"}, {"measurement": "total ErbB3 protein level", "setting": "[2]", "result": "potently down-regulates"}, {"measurement": "total IGF-1R protein level", "setting": "[2]", "result": "potently down-regulates"}]}
